Reference: patent US6699384B1, “Compact electrochemical sensor system and method for field testing for metals in saliva or other fluids” (priority 1999, dated 2004)
Values joined by “and” are separate entries in the source; they are usually repeats but may differ in a detail not shown here. Equal entries are not always repeated.

What was measured:
[1] = Pb in whole blood and saliva of rats after single acute oral doses of Pb-acetate; type: in vivo, Fisher 344 rats
Description: Different sample pretreatment procedures for the effective release of the Pb from its binding sites in the biological fluids have been previously reviewed. (Wang, J.: Stripping analysis of trace metals in human body fluids. J. Electroanal. Chem., 139: 225-232 (1982)). It was reported that 0.5 M HCl can effectively release Pb^2+ ion from blood samples. (Nagler, R. M., Baum, B. J., and Fox, P. C.: Effect of X irradiation on the function of rat salivary glands at 3 and 40 days. Rad. Res., 136: 392-396 (1993)). In our work saliva sample was diluted 5 times with acidic solution to a final concentration of 0.5 M HCl. The sample solution was then loaded in sample reservoir and was delivered by the integrated micro-pump. The sample solution flowed across a mercury (Hg)-film working electrode and exited through an outflow groove positioned directly across the Pt auxiliary electrode. Square wave anodic stripping voltametry (SWASV) was utilized for quantitation of Pb in the specimens. For Pb detection, a constant potential of −1.10 V was applied to the glassy carbon Hg-film electrode. When sample solution flowed over the electrode surface, Pb^2+ was reduced and accumulated. After a 3-min accumulation period, the potential of the Hg-film electrode was scanned from −1.10 V to −0.10 V. To eliminate the sample matrix effect for blood and saliva samples, after the accumulation period, a clean solution (0.5 M HCl) was pumped from another reservoir and replaced the sample matrix, then the stripping analysis was performed. After each measurement the Pb was stripped from the electrode surface and the sensor was then available for analysis of the next specimen.
In order to validate the capability of the micro-analytical detection system to quantify Pb in biological specimens, rat studies were conducted using single acute oral doses of Pb-acetate. Adult male Fisher 344 rats were obtained from Charles River Laboratory and ranged from ˜0.230 to 0.260 kg of body weight when used. Groups of rats (3-5 animals/dose) were administered an aqueous solution of Pb-acetate by oral gavage at doses of 0, 20, 50, 100, 200 and 500 mg/kg of body weight. At ˜24 hr post-dosing the rats were anesthetized with an ip injection of ketamine (87 mg/kg):xylazine (13 mg/kg). In addition, each rat was given an ip injection of the cholinergic agonist pilocarpine (1 mg/kg) to induce salivation. Saliva was then collected from each rat, using a glass capillary tube, for approximately 30-min (˜1-2 mL saliva) at which time the rats were exsanguinated by cardiac puncture. Whole blood and saliva specimens were weighed and stored frozen (−80° C.) until the Pb analysis was conducted.
The concentration of Pb in the specimens was determined by inductively coupled plasma/mass spectrometry (ICP-MS). […]

[2] = Rate of salivation during pilocarpine treatment; type: in vivo, Fisher 344 rats; conditions: rat, pilocarpine 1 mg/kg ip
Procedure: In order to validate the capability of the micro-analytical detection system to quantify Pb in biological specimens, rat studies were conducted using single acute oral doses of Pb-acetate. Adult male Fisher 344 rats were obtained from Charles River Laboratory and ranged from ˜0.230 to 0.260 kg of body weight when used. Groups of rats (3-5 animals/dose) were administered an aqueous solution of Pb-acetate by oral gavage at doses of 0, 20, 50, 100, 200 and 500 mg/kg of body weight. At ˜24 hr post-dosing the rats were anesthetized with an ip injection of ketamine (87 mg/kg):xylazine (13 mg/kg). […]
A PBPK model describing the disposition of Pb in the rat was modified to accommodate a saliva compartment. In general, the PBPK model structure and parameter estimations were as previously described, and the reader is referred to O'Flagherty for a detailed description of the model. […] For simplification the model assumes a constant rate of saliva secretion based on the measured rate of salivation during pilocarpine treatment (0.048 L/day), recognizing that this represents an over estimation of normal saliva flow. […] The fraction of cardiac output to the saliva gland and 1st order absorption rate for intraperitoneal (ip) Pb administration were determined by fitting the data of Mobarak and P'an. […]

Compound	blood Pb concentration ([1]; 500 mg/kg oral dose group, 24 hr post-dosing, saliva response non-linear relative to blood)	Pb in rat saliva, Results of ICP/MS ([1]; rat saliva ~24 hr after oral gavage of Pb-acetate, ICP-MS after acid digestion, individual samples 1-3)	Pb in rat saliva, Results of micro Analytical System ([1]; rat saliva ~24 hr after oral gavage of Pb-acetate, SWASV on Hg-film electrode, individual samples 1-3)	saliva Pb as percentage of the concentration in the blood ([1]; rat, oral Pb-acetate, ~24 hr post-dosing)	rate of saliva secretion [2]
CC(=O)[O-].CC(=O)[O-].[Pb+2] [Pb, Pb-acetate]	exceeding 0.7 mg/L	99 ppb and 150 ppb and 116 ppb	80 ppb and 108 ppb and 111 ppb	8.5%-9	
CC[C@@H]1C(=O)OC[C@@H]1Cc1cncn1C [pilocarpine]					0.048 L/day
